The results in this text go back to US20260176289A1, “SMALL MOLECULE INHIBITORS OF KRAS PROTEINS” (Merck Sharp & Dohme LLC, priority 2022, published 2026).

Each structure is given as a SMILES string. Read-outs that look alike come from different tables or passages of the source.

The test system of one assay is AsPC-1 cells. In words: Cellular phospho-ERK assay, AsPC-1 cells (homozygous KRAS-G12D). Type of assay: cell-based. Particulars: Homo sapiens, ASPC1, 2 h, read-out: AsPC1 pERK IC50. Here is the method:
Procedure for Cellular Phospho-ERK Assay in KRAS Wild Type and Mutant (G12D, G12V) Cell Lines
MKN-1 cells (JCRB JCRB0252) containing amplified wild-type KRAS, were cultured in growth medium that contains RPMI 1640-GlutaMAX™-I (ThermoFisher Scientific 61870) containing 10% heat inactivated fetal bovine serum (ThermoFisher Scientific 10091148), 1 mM sodium pyruvate and 10 mM HEPES. PANC08.13 cells (ATCC® CRL-2551™), containing homozygous KRAS-G12D activating mutation, were cultured in growth medium made of RPMI1640-GlutaMAX™-I (ThermoFisher Scientific 61870) containing 15% heat inactivated fetal bovine serum (ThermoFisher Scientific 10091148)). AsPC-1 cells (ATCC® CRL-1682™), containing homozygous KRAS-G12D activating mutation, were cultured in T150 flask in growth medium (RPMI medium 1640-GlutaMAX™-I (ThermoFisher Scientific 61870) containing 10% fetal bovine serum (ThermoFisher Scientific 10091148)). SW620 cells (ATCC® […]), containing homozygous KRAS-G12V activating mutation, were cultured in growth medium that contains RPMI 1640-GlutaMAX™-I (ThermoFisher Scientific 61870) containing 10% heat inactivated fetal bovine serum (ThermoFisher Scientific 10091148).
Cells for the assay were harvested in growth medium after TrypLE (ThermoFisher scientific 12604021) digestion and were seeded in a 384-well collagen coated cell culture plate (Corning 356702) at a density of 10,000-15,000 cells/20 μL/well, and incubated at 37° C., 5% CO2 overnight. The compound (with 10 mM stock concentration) dose-response titrations were prepared [30 μM final ERK detection assay concentration and 1:3 dilutions, 10-point dose response] and appropriate amounts (270 nL) of test compounds were dispensed in a 384-well intermediate plate using an Echo 550 liquid handler. 30 μL/well of RPMI medium 1640-GlutaMAX™—I was added to the intermediate plate and the contents of the intermediate plate (10 μL/well) were then transferred to the 384-well collagen coated cell culture plate, which was incubated at 37° C., 5% CO2 for 2 hours. After removal of medium from the collagen coated cell culture plate, cells were lysed in lysis buffer from Alpha SureFire® Ultra™ Multiplex p-ERK and total ERK assay kit (PerkinElmer MPSU-PTERK) containing Halt™ Protease and Phosphatase inhibitor cocktail (ThermoFisher Scientific 78446) at room temperature with constant shaking at 300 rpm for 30 minutes. The cell lysates were then transferred to an OptiPlate-384 plate (PerkinElmer 6005620), and the phosphorylation of ERK (p-ERK) and total ERK levels were detected by Alpha SureFire® Ultra™ Multiplex p-EEK kit and total ERK assay kit (PerkinElmer MPSU-PTERK) following the manufacturer's protocol. Assay plates were read on a En Vision Multimode Plate Reader (PerkinElmer), and the ratio of p-ERK vs. total ERK in each well was used as the final readout. Dose response curves were analyzed using a 4-parameter logistic model to calculate IC50 values using Spotfire software.

For another assay, the target named is KRAS-WT (Homo sapiens, UniProt P01116). In words: SOS-catalyzed nucleotide exchange assay (Procedure A, TR-FRET), KRAS-WT. Format: biochemical. Particulars: nucleotide exchange, read-out: KRAS WT GNE IC50. The text has this:
(§1) Procedure for SOS-Catalyzed Nucleotide Exchange Assay for KRAS-WT, G12C/D/V, G13D, HRAS, and NRAS (Procedure A)
(§2) Recombinant KRAS-G12C protein used in this assay has an additional triple mutation (C51S/C80L/C118S). Whereas KRAS-WT, G12D/V, G13D, HRAS and NRAS are in context of their WT protein sequence background. Specifically, the SOS-catalyzed nucleotide exchange assay utilizes a preformed TR-FRET complex containing a specific biotinylated RAS protein (KRAS-WT, G12C/V/D, G13D, HRAS, NRAS; described above) with Bodipy-GDP, and Terbium-streptavidin. Compounds are preincubated with this complex for 60 minutes. Subsequently, recombinant human SOS protein and unlabeled GTP are added to initiate the exchange reaction. Small molecule inhibitors stabilize the Bodipy-GDP complex whereas the untreated protein rapidly exchanges Bodipy-GDP for unlabeled GTP resulting in reduced TR-FRET signal.
(§3) To assemble the preformed TR-FRET complexes, each biotinylated RAS protein is diluted to 2 μM in an EDTA Buffer (20 mM HEPES pH 7.5, 50 mM sodium chloride, 10 mM EDTA, and 0.01% Tween) and incubated at room temperature for one hour. This mixture is then further diluted to 90 nM in an Assay Buffer (20 mM HEPES pH 7.5, 150 mM sodium chloride, 10 mM magnesium chloride, and 0.005% Tween) containing 15 nM of Terbium-Streptavidin (Invitrogen, catalog #PV3577) and 900 nM of Bodipy-GDP (Invitrogen, catalog #G22360) and incubated at room temperature for six hours. It should be noted that this preformed TR-FRET complex for each of the RAS protein were made ahead of time, aliquoted and stored at −80° C. until the day of the experiment.
(§4) Each test compound (10 mM stock in DMSO) is diluted in DMSO to make a final-10-point, 3-fold dilution and is acoustically dispensed into a 384-well assay plate (Corning, catalog #3820) using an Echo 550 (Labcyte). Each well of the assay plate receives 3 μL of a specific 3×RAS preformed TR-FRET complex and 3 μL of Assay Buffer and is incubated at room temperature for 60 minutes (preincubation time). Each well then receives 3 μL of 3×recombinant human SOS protein and GTP (Sigma, G8877) in Assay Buffer and is incubated at room temperature for 30 minutes (G13D), 60 minutes (KRAS WT/G12C/D, H/NRAS) or 90 minutes for G12V. The final reaction in each well of 9 μL consists of 3 mM GTP, specific Ras and SOS proteins in the following concentrations: KRAS-G12C/SOS=3 nM/40 nM, KRAS-WT and G12D/SOS=1 nM/40 nM, KRAS-G12V/SOS=1.25 nM/160 nM. KRAS-G13D/SOS=1.25 nM/0 nM, HRAS and NRAS=1.25 nM/40 nM.
(§5) The time-resolved fluorescence resonance energy transfer (TR-FRET) signal is measured on an Envision (PerkinElmer) plate reader: Excitation filter=340 nm; emission 1=495 nm; emission2=520 nm; dichroic mirror=D400/D505; delay time=[…]. The signal of each well is determined as the ratio of the emission at 520 nm to that at 495 nm. Percent effect of each well is determined after normalization to control wells containing DMSO (no effect) or a saturating concentration of inhibitor (max effect). The apparent effect as a function of compound concentration is fit to a four-parameter logistic equation.

The next assay addresses KRAS-G12V (Homo sapiens, UniProt P01116, G12V). Put plainly: SOS-catalyzed nucleotide exchange assay (Procedure A, TR-FRET), KRAS-G12V. Format: biochemical. As to conditions: nucleotide exchange, read-out: KRAS G12V GNE IC50.
From the text: as §1, §2, §3, §4, §5

The next assay has as its target KRAS-G12D (Homo sapiens, UniProt P01116, G12D). Put plainly: SOS-catalyzed nucleotide exchange assay (Procedure A, TR-FRET), KRAS-G12D. As to conditions: nucleotide exchange, read-out: KRAS G12D GNE IC50. Format: biochemical.
From the text: as §1, §2, §3, §4, §5

Chain of KRAS-WT (P01116 with tags, fused parts or gaps isoform P01116-2): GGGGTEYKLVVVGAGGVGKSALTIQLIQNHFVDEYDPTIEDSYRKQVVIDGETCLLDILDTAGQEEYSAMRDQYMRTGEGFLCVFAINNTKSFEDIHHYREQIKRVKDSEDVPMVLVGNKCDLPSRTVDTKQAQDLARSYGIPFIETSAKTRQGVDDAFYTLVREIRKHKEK
Chain of KRAS-G12D (P01116 with tags, fused parts or gaps isoform P01116-2 G12D): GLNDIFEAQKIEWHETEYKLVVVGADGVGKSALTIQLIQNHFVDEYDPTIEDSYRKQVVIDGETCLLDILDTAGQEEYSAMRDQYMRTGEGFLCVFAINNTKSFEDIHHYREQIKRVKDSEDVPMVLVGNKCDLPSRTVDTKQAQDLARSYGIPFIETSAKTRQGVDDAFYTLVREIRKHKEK
Chain of KRAS-G12V (P01116 with tags, fused parts or gaps isoform P01116-2 G12V): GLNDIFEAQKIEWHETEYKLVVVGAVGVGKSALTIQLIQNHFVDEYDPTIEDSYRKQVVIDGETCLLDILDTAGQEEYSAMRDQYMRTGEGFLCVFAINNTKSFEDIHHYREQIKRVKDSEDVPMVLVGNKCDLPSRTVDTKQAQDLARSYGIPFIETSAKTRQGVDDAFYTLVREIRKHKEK

Take `F[C@H]1CN2CCC[C@@]2(COc2nc(N3CCCOCC3)c3c(n2)sc2c(-c4c(C5CC5)c(Cl)cc5[nH]ncc45)nncc23)C1` [Ex-286]: the IC50 with AsPC-1 cells (KRAS-G12D, 2 hours) is 1110 nM; on KRAS-WT it was 52 nM; at KRAS-G12V it was 50.3 nM; at KRAS-G12D it was 205 nM.
For the compound `C[C@@]1(O)COCCN(c2nc(OC[C@@]34CCCN3C[C@H](F)C4)nc3sc4c(-c5c(C6(F)CC6)c(F)cc6[nH]ncc56)nccc4c23)C1` [Ex-53, (6S)-4-(8-(6-fluoro-5-(1-fluorocyclopropyl)-1H-indazol-4-yl)-2-(((2R,7aS)-2-fluorotetrahydro-1H-pyrrolizin-7a(5H)-yl)methoxy)pyrido[4′,3′:4,5]thi-eno[2,3-d]pyrimidin-4-yl)-6-methyl-1,4-oxazepan-6-ol], the IC50 in the assay on AsPC-1 cells (KRAS-G12D, 2 hours) stood at 465 nM; on KRAS-WT, 91.2 nM; at KRAS-G12V it was 46.7 nM; on KRAS-G12D, 26.4 nM.
For `C[C@H]1CN(C[C@@]2(COc3nc(N4CCOC[C@@](C)(O)C4)c4c(n3)sc3c(-c5c(C6(F)CC6)c(Cl)cc6[nH]ncc56)nccc34)CC2(F)F)[C@@H](C)CO1` [Ex-241, (6S)-4-(8-(6-chloro-5-(1-fluorocyclopropyl)-1H-indazol-4-yl)-2-(((R)-1-(((2S,5S)-2,5-dimethylmorpholino)methyl)-2,2-difluorocyclopropyl)methoxy)pyrido[4′,3′:4,5]thieno[2,3-d]pyrimidin-4-yl)-6-methyl-1,4-oxazepan-6-ol], the IC50 turned out to be 1410 nM in the assay with AsPC-1 cells (2 hours compound incubation), 1860 nM at KRAS-WT, 308 nM on KRAS-G12V and 98.2 nM on KRAS-G12D.
For `C[C@@]1(O)COCCN(c2nc(OC[C@]3(CN4CC5CC4(CF)C5)CC3(F)F)nc3sc4c(-c5c(C6(F)CC6)c(Cl)cc6[nH]ncc56)nccc4c23)C1` [Ex-259, (6S)-4-(8-(6-chloro-5-(1-fluorocyclopropyl)-1H-indazol-4-yl)-2-(((R)-2,2-difluoro-1-((1-(fluoromethyl)-2-azabicyclo[2.1.1]hexan-2-yl)methyl)cyclopropyl)metho-xy)pyrido[4′,3′:4,5]thieno[2,3-d]pyrimidin-4-yl)-6-methyl-1,4-oxazepan-6-ol], in that order: 184 nM, 79.7 nM, 34.2 nM and 11.3 nM.
On to `C=C(c1c(C)cc2[nH]ncc2c1-c1nccc2c1sc1nc(OC[C@@]34CCCN3C[C@H](F)C4)nc(N3CCOC[C@@](C)(O)C3)c12)C(F)(F)F` [Ex-66, (6S)-4-(2-(((2R,7aS)-2-fluorotetrahydro-1H-pyrrolizin-7a(5H)-yl)methoxy)-8-(6-methyl-5-(3,3,3-trifluoroprop-1-en-2-yl)-1H-indazol-4-yl)pyrido[4′,3′:4,5]thieno [2,3-d]pyrimidin-4-yl)-6-methyl-1,4-oxazepan-6-ol], for which the IC50 with AsPC-1 cells (KRAS-G12D, 2 hours) was determined as 457 nM; on KRAS-WT, 218 nM; at KRAS-G12V, 57.9 nM; at KRAS-G12D, 93.6 nM.
For `C[C@@]1(O)COCCN(c2nc(OC[C@]3(CN4CCOC5(CC5)C4)CC3(F)F)nc3sc4c(-c5c(C6(F)CC6)c(Cl)cc6[nH]ncc56)nccc4c23)C1` [Ex-264, (6S)-4-(2-(((R)-1-((4-oxa-7-azaspiro[2.5]octan-7-yl)methyl)-2,2-difluorocyclopropyl)methoxy)-8-(6-chloro-5-(1-fluorocyclopropyl)-1H-indazol-4-yl)pyrido[4′,3′:4,5]thieno[2,3-d]pyrimidin-4-yl)-6-methyl-1,4-oxazepan-6-ol], the IC50 was determined as 618 nM in the assay on AsPC-1 cells (2 hours compound incubation), 351 nM on KRAS-WT, 215 nM on KRAS-G12V and 63.9 nM on KRAS-G12D.
For `C=C1CN2CC(=C)CC2(COc2nc(N3CCOC[C@@](C)(O)C3)c3c(n2)sc2c(-c4c(C5CC5)c(Cl)cc5[nH]ncc45)nccc23)C1` [Ex-225, (6S)-4-(8-(6-chloro-5-cyclopropyl-1H-indazol-4-yl)-2-((2,6-dimethylene-tetrahydro-1H-pyrrolizin-7a(5H)-yl)methoxy)pyrido [4′,3′:4,5]thieno[2,3-d]pyrimidin-4-yl)-6-methyl-1,4-oxaze-pan-6-ol], the IC50 came to 39.9 nM on KRAS-WT, 21.5 nM at KRAS-G12V and 12.7 nM at KRAS-G12D.
In the case of `C[C@@]1(O)COCCN(c2nc(OC[C@@]34CCCN3C[C@H](F)C4)nc3sc4c(-c5cccc(Cl)c5C5CC5)nccc4c23)C1` [Ex-122, (S)-4-(8-(3-chloro-2-cyclopropylphenyl)-2-(((2R,7aS)-2-fluorotetrahydro-1H-pyrrolizin-7a(5H)-yl)methoxy)pyri-do[4′,3′:4,5]thieno[2,3-d]pyrimidin-4-yl)-6-methyl-1,4-oxazepan-6-ol], the IC50 on KRAS-WT came to 908 nM; at KRAS-G12V it was 280 nM; at KRAS-G12D, 404 nM.
The matching figures for `Cc1cc2[nH]ncc2c(-c2nccc3c2sc2nc(OC[C@@]45CCCN4C[C@H](F)C5)nc(N4CCOC[C@@](C)(O)C4)c23)c1C(C)(C)C#N` [Ex-154, 2-(4-(2-(((2R,7aS)-2-fluorotetrahydro-1H-pyrrolizin-7a(5H)-yl)methoxy)-4-((S)-6-hydroxy-6-methyl-1,4-oxazepan-4-yl)pyrido[4′,3′:4,5]thieno[2,3-d]pyrimidin-8-yl)-6-methyl-1H-indazol-5-yl)-2-methylpropanenitrile]: 277 nM, 103 nM and 104 nM.
